Experimental data published in US10829520B2, “Beta-hairpin peptidomimetics” (POLYPHOR AG, priority 2015, dated 2020).
Read-outs that look alike come from different tables or passages of the source. Where a SMILES comes first, the peptide text is derived from it. Bridges are numbered along the chain shown (N, C = ends). [ ]: non-standard residue; d: D form. Tle = CC(C)(C)[C@H](N)C(=O)O; NMeC = CN[C@@H](CS)C(=O)O; dDab = NCC[C@@H](N)C(=O)O; Nle = CCCC[C@H](N)C(=O)O; Orn = NCCC[C@H](N)C(=O)O; Dab = NCC[C@H](N)C(=O)O; Dap = NC[C@H](N)C(=O)O; Sar = CNCC(=O)O

Legend:
Format in all cases: cell-based
[1] = tested on: Acinetobacter baumannii 872842
[2] = tested on: Acinetobacter baumannii DSM 30008
Summary of the method: (§1)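 Peptide stocks (1 mg/mL, water) were diluted two-fold into MH-II broth with 0.002% P-80 and mixed with approx. 10^6 CFU/mL bacteria. Plates were read visually after 18-20 hours at 35° C, with MIC expressed in μg/mL per CLSI.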

Escherichia coli 926415 = tested on: Escherichia coli 926415
[3] = tested on: Escherichia coli ATCC 25922
Summary of the method: as §1

[4] = tested on: Klebsiella pneumoniae 968733
[5] = tested on: Klebsiella pneumoniae SSI #3010
Summary of the method: as §1

[6] = tested on: Pseudomonas aeruginosa ATCC 27853
Summary of the method: as §1

[7] = tested on: human red blood cells (hRBC); assay: Hemolysis of human red blood cells; conditions: 100 μg/mL
Summary of the method: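 hRBC washed 3× PBS; 20% v/v, ~0.9×10^9 cells/mL final. Peptide 100 μg/mL, 1 h, 37° C., 300 rpm. Spin, supernatant diluted 8×, OD540. 0% = PBS + 0.001% acetic acid; 100% = 2.5% Triton X-100. % hemolysis = OD540 peptide/OD540 full lysis × 100.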

[8] = clinical isolate, Mueller-Hinton II broth, P-80 0.002% present

Row | Structure (SMILES) | Acinetobacter baumannii 872842 MIC [1, 8] [mg/L] | Acinetobacter baumannii DSM 30008 MIC ([2]; Mueller-Hinton II broth) [mg/L] | Escherichia coli 926415 MIC (Escherichia coli 926415; [8]) [mg/L] | Escherichia coli ATCC 25922 MIC ([3]; Mueller-Hinton II broth) [mg/L] | Klebsiella pneumoniae 968733 MIC [4, 8] [mg/L] | Klebsiella pneumoniae SSI #3010 MIC ([5]; Mueller-Hinton II broth) [mg/L] | Pseudomonas aeruginosa ATCC 27853 MIC ([6]; Mueller-Hinton II broth) [mg/L] | Hemolysis at 100 μg/mL ([7]; 20% hRBC, 1 h at 37° C.) [%] | Acinetobacter baumannii 872842 MIC [1]; 872842 [mg/L] | Acinetobacter baumannii DSM 30008 MIC ([2]; DSM 30008) [mg/L] | Escherichia coli 926415 MIC (Escherichia coli 926415; 926415) [mg/L] | Escherichia coli ATCC 25922 MIC ([3]; ATCC 25922) [mg/L] | Klebsiella pneumoniae 968733 MIC [4]; 968733 [mg/L] | Klebsiella pneumoniae SSI #3010 MIC ([5]; SSI #3010) [mg/L] | Pseudomonas aeruginosa ATCC 27853 MIC ([6]; ATCC 27853) [mg/L] | Hemolysis at 100 μg/mL ([7]; red cells of human, 1 h) [%]
1 | CC(=O)N[C@H]1CSSC[C@@H](C(=O)N[C@H](CCN)C(=O)N[C@H]2CCNC(=O)[C@H]([C@@H](C)O)NC(=O)[C@H](CCN)NC(=O)[C@H](CCN)NC(=O)[C@H](CC(C)C)NC(=O)[C@@H](Cc3ccccc3)NC(=O)[C@H](CCN)NC2=O)NC(=O)[C@H](CCCN)NC(=O)[C@H](CC(N)=O)NC(=O)[C@H](Cc2ccc(O)cc2)NC(=O)[C@@H]2CSSC[C@H](NC(=O)[C@H](Cc3ccc(O)cc3)NC(=O)[C@H](CO)NC(=O)[C@H](Cc3c[nH]c4ccccc34)NC1=O)C(=O)N[C@@H](C(C)C)C(=O)N[C@H](CCN)C(=O)N[C@@H](CCCNC(=N)N)C(=O)N[C@@H](CC(C)C)C(=O)N2 [Ex. 211] (Ac-CWSYCV[dDab]RLCYN[Orn]C[dDab][Dab][Dab][dF]L[Dab][Dab]T; disulfide 1-14, 5-10; lactam 16-C) | 2 | 1 | 2 | 0.5 | 8 | 1 | 2 | 2 |  |  |  |  |  |  |  | 
2 | CC(C)C[C@@H]1NC(=O)[C@@H](CC(C)C)NC(=O)[C@H](CCN)NC(=O)[C@@H](NC(=O)[C@H](CCN)NC(=O)CN(C)C(=O)[C@@H]2CSSC[C@H](N)C(=O)N[C@@H](Cc3c[nH]c4ccccc34)C(=O)N[C@@H](CCN)C(=O)N[C@@H](C(C)C)C(=O)N[C@H]3CSSC[C@H](NC(=O)[C@H](CC(C)C)NC(=O)[C@@H]4CCCN4C(=O)[C@H]4CCCN4C(=O)[C@H](CO)NC3=O)C(=O)N[C@@H](Cc3ccc(O)cc3)C(=O)N[C@@H](CCN)C(=O)N[C@@H](CCCN)C(=O)N2)CCNC(=O)[C@H]([C@@H](C)O)NC(=O)[C@H](CCN)NC(=O)[C@H](CCN)NC1=O [Ex. 212] (H-CW[Dab]VCS[dP]PLCY[Dab][Orn]C[Sar][Dab][Dab][Dab][dL]L[Dab][Dab]T; disulfide 1-14, 5-10; lactam 17-C) | 1 | 1 | 1 | 0.5 | 4 | 2 | 0.5 | 1 |  |  |  |  |  |  |  | 
3 | CC(C)C[C@@H]1NC(=O)[C@@H](CC(C)C)NC(=O)[C@H](CCN)NC(=O)[C@@H](NC(=O)[C@H](CCN)NC(=O)CN(C)C(=O)[C@@H]2CSSC[C@H](N)C(=O)N[C@@H](Cc3c[nH]c4ccccc34)C(=O)N[C@@H](CCN)C(=O)N[C@@H](C(C)C)C(=O)N[C@H]3CSSC[C@H](NC(=O)[C@H](CC(C)C)NC(=O)[C@@H]4CCCN4C(=O)[C@H]4CCCN4C(=O)[C@H](Cc4ccc(O)cc4)NC3=O)C(=O)N[C@@H](Cc3ccc(O)cc3)C(=O)N[C@@H](CCN)C(=O)N[C@@H](CCCN)C(=O)N2)CCNC(=O)[C@H]([C@@H](C)O)NC(=O)[C@H](CCN)NC(=O)[C@H](CCN)NC1=O [Ex. 213] (H-CW[Dab]VCY[dP]PLCY[Dab][Orn]C[Sar][Dab][Dab][Dab][dL]L[Dab][Dab]T; disulfide 1-14, 5-10; lactam 17-C) | 0.5 | 0.5 | 0.5 | 0.125 | 1 | 0.5 | 0.5 | 3 |  |  |  |  |  |  |  | 
4 | CCCC[C@@H]1NC(=O)[C@@H]2CCCN2C(=O)[C@H]2CCCN2C(=O)[C@H](CO)NC(=O)[C@H](CC(N)=O)NC(=O)[C@H](C(C)(C)C)NC(=O)[C@H](CCN)NC(=O)[C@H](Cc2c[nH]c3ccccc23)NC(=O)[C@@H](NC)CSSC[C@@H](C(=O)N(C)CC(=O)N[C@H](CCN)C(=O)N[C@@H](CCN)C(=O)N[C@H]2CCNC(=O)[C@H]([C@@H](C)O)NC(=O)[C@H](CCN)NC(=O)[C@H](CCN)NC(=O)[C@H](CC(C)C)NC(=O)[C@@H](CC(C)C)NC(=O)[C@H](CCN)NC2=O)NC(=O)[C@H](CCCN)NC(=O)[C@H](CCN)NC(=O)[C@H](Cc2ccc(O)cc2)NC(=O)[C@H](CN)NC1=O [Ex. 214] (H-[NMeC]W[Dab][Tle]NS[dP]P[Nle][Dap]Y[Dab][Orn]C[Sar][dDab][Dab][Dab][Dab][dL]L[Dab][Dab]T; disulfide 1-14; lactam 18-C) |  |  |  |  |  |  |  |  | 0.5 | 2 | 2 | 0.5 | 8 | 1 | 0.5 | 1
5 | CCCC[C@@H]1NC(=O)[C@@H]2CCCN2C(=O)[C@H]2CCCN2C(=O)[C@H](CO)NC(=O)[C@H](C)NC(=O)[C@H](C(C)(C)C)NC(=O)[C@H](CCN)NC(=O)[C@H](Cc2c[nH]c3ccccc23)NC(=O)[C@@H](N)CSSC[C@@H](C(=O)N[C@H](CCN)C(=O)N[C@H]2CCN(C)C(=O)[C@H]([C@@H](C)O)NC(=O)[C@H](CCN)NC(=O)[C@H](CCN)NC(=O)[C@H](CC(C)C)NC(=O)[C@@H](Cc3ccccc3)NC(=O)[C@H](CCN)NC2=O)NC(=O)[C@H](CCCN)NC(=O)[C@H](CCN)NC(=O)[C@H](Cc2ccc(O)cc2)NC(=O)[C@H](CO)NC1=O [Ex. 215] |  |  |  |  |  |  |  |  | 1 | 0.25 | 0.25 | 0.25 | 0.5 | 0.25 | 1 | <1
6 | CCCC[C@@H]1NC(=O)[C@@H]2CCCN2C(=O)[C@H]2CCCN2C(=O)[C@H](CO)NC(=O)[C@H](C)NC(=O)[C@H](C(C)(C)C)NC(=O)[C@H](CCN)NC(=O)[C@H](Cc2c[nH]c3ccccc23)NC(=O)[C@@H](N)CSSC[C@@H](C(=O)N[C@H](CCN)C(=O)N[C@H]2CCN(C)C(=O)[C@H](C(C)C)NC(=O)[C@H](CCN)NC(=O)[C@H](CCN)NC(=O)[C@H](CC(C)C)NC(=O)[C@@H](Cc3ccccc3)NC(=O)[C@H](CCN)NC2=O)NC(=O)[C@H](CCCN)NC(=O)[C@H](CCN)NC(=O)[C@H](Cc2ccc(O)cc2)NC(=O)[C@H](CO)NC1=O [Ex. 216] |  |  |  |  |  |  |  |  | 0.5 | 0.125 | 0.0625 | 0.125 | 0.25 | 0.125 | 0.5 | 1
